# Like-named read-outs stand apart in the source and are kept apart here.
# What was measured:
# Format in all cases: in vivo
# [1] = test system: velvetleaf (Abutilon theophrasti Medic.); assay: Test Example 1: pot test, soil treatment, growth inhibition of velvetleaf; conditions: read-out: Growth inhibition rate of velvetleaf (%) Measured value
# Description: Upland field soil was put into a 1/300,000 ha pot, and seeds of velvetleaf (Abutilon theophrasti Medic.) were sown. On the next day, predetermined amounts of a flowable containing nicosulfuron as an active ingredient (tradename: ONEHOPE NYUZAI, manufactured by Ishihara Sangyo Kaisha, Ltd.), an emulsifiable concentrate containing dimethenamid-P as an active ingredient (tradename: Spectrum, manufactured by BASF) and a flowable containing topramezone as an active ingredient (tradename: Clio, manufactured by BASF) were diluted with water (in an amount corresponding to 1,000 L/ha) and applied for soil treatment by a small sprayer.
# On the 28th day after treatment, the state of growth of the velvetleaf was visually observed to determine the growth inhibition rate (%) in accordance with the following evaluation standard. The growth inhibition rate (%) (measured value) and the growth inhibition rate (%) (calculated value) calculated by the Colby's formula are shown in Table 1.
# (§1) Growth inhibition rate (%)=0 (equivalent to the non-treated area) to 100 (complete kill)
# [2] = test system: wild oat (Avena fatua L.); assay: Test Example 4: pot test, soil treatment, growth inhibition of wild oat; conditions: read-out: Growth inhibition rate of wild oat (%) Measured value
# Experimental: as §1
# (§2) Upland field soil was put into a 1/160,000 ha pot, and seeds of wild oat (Avena fatua L.) were sown. On the next day, predetermined amounts of ONEHOPE NYUZAI (tradename), Clio (tradename) and Spectrum (tradename) were diluted with water (in an amount corresponding to 300 L/ha) and applied for soil treatment by a small sprayer.
# (§3) On the 28 th day after treatment, the state of growth of the wild oat was visually observed to determine the growth inhibition rate (%). The growth inhibition rate (%) (measured value) and the growth inhibition rate (%) calculated in the same manner as in the above Test Example 1 are shown in Table 4.
# [3] = test system: annual ragweed (Ambrosia artemisiifolia L.); assay: Test Example 3: pot test, foliar treatment, growth inhibition of annual ragweed; conditions: read-out: Growth inhibition rate of annual ragweed (%) Measured value
# Experimental: as §1
# Upland field soil was put into a 1/1,000,000 ha pot, and seeds of annual ragweed (Ambrosia artemisiifolia L.) were sown. When the annual ragweed reached 6.0 to 8.0-leaf stage, predetermined amounts of ONEHOPE NYUZAI (tradename), Clio (tradename) and Spectrum (tradename) were diluted with water (in an amount corresponding to 300 L/ha) and applied for foliar treatment by a small sprayer.
# as §3, with “20” for “28”, “annual ragweed” for “wild oat”, “3.” for “4.”
# [4] = test system: korean lespedeza (Kummerowia stipulacea (Maxim.) Makino); assay: Test Example 2: pot test, soil treatment, growth inhibition of korean lespedeza; conditions: read-out: Growth inhibition rate of korean lespedeza (%) Measured value
# Experimental: as §1
# as §2, with “korean lespedeza (Kummerowia stipulacea (Maxim.) Makino)” for “wild oat (Avena fatua L.)”
# as §3, with “14th” for “28 th”, “korean lespedeza” for “wild oat”, “2.” for “4.”
structure (smiles),measurement,setting,value
"COC[C@H](C)N(C(=O)CCl)c1c(C)csc1C [Dimethenamid-P, (S)-2-chloro-N-(2,4-dimethyl-3-thienyl)-N-(2-methoxy-1-methylethyl)acetamide]",inhibition at 500 g/ha,"[1]; dose 500 g/ha, soil treatment, 28th day after treatment",20%
same,inhibition at 250 g/ha,"[2]; dose 250 g/ha, soil treatment, 28th day after treatment",60%
same,inhibition at 500 g/ha,"[3]; dose 500 g/ha, foliar treatment at 6.0 to 8.0-leaf stage, 20th day after treatment",0%
same,inhibition at 1000 g/ha,"[3]; dose 1000 g/ha, foliar treatment at 6.0 to 8.0-leaf stage, 20th day after treatment",0%
same,inhibition at 250 g/ha,"[4]; dose 250 g/ha, soil treatment, 14th day after treatment",30%
same,inhibition at 1500 g/ha,"[4]; dose 1500 g/ha, soil treatment, 14th day after treatment",30%
"COc1cc(OC)nc(NC(=O)NS(=O)(=O)c2ncccc2C(=O)N(C)C)n1 [Nicosulfuron, 2-(4,6-dimethoxypyrimidin-2-ylcarbamoylsulfamoyl)-N,N-dimethylnicotinamide]",inhibition at 15 g/ha,"[1]; dose 15 g/ha, soil treatment, 28th day after treatment",0%
same,inhibition at 100 g/ha,"[2]; dose 100 g/ha, soil treatment, 28th day after treatment",60%
same,inhibition at 30 g/ha,"[3]; dose 30 g/ha, foliar treatment at 6.0 to 8.0-leaf stage, 20th day after treatment",13%
same,inhibition at 10 g/ha,"[4]; dose 10 g/ha, soil treatment, 14th day after treatment",0%
same,inhibition at 100 g/ha,"[4]; dose 100 g/ha, soil treatment, 14th day after treatment",10%
"Cc1c(C(=O)c2cnn(C)c2O)ccc(S(C)(=O)=O)c1C1=NOCC1 [Topramezone, [3-(4,5-dihydro-1,2-oxazol-3-yl)-4-mesyl-o-tolyl](5-hydroxy-1-methylpyrazol-4-yl)methanone]",inhibition at 20 g/ha,[1]; soil,60%
same,inhibition at 15 g/ha,[2]; soil,0%
same,inhibition at 20 g/ha,[3]; foliar,40%
same,inhibition at 50 g/ha,[3]; foliar,65%
same,inhibition at 15 g/ha,[4]; soil,0%
same,inhibition at 100 g/ha,[4]; soil,10%
